Data as given in ChEMBL document CHEMBL1201862, “PubChem BioAssay data set” (2004).
The source made the active and inactive calls.

Experiments:
[1] = target: T1, Short transient receptor potential channel 4 (Mus musculus, UniProt Q9QUQ5); experiment: block of DAMGO-driven TRPC4 calcium entry – cell-based, HEK293 TRPC4/mu-opioid, Fluo-4 calcium, dose response (AID 434942); assay type: functional;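 further: potency of inhibitors blocking the TRPC4 calcium response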
T1 sequence (Q9QUQ5 whole entry): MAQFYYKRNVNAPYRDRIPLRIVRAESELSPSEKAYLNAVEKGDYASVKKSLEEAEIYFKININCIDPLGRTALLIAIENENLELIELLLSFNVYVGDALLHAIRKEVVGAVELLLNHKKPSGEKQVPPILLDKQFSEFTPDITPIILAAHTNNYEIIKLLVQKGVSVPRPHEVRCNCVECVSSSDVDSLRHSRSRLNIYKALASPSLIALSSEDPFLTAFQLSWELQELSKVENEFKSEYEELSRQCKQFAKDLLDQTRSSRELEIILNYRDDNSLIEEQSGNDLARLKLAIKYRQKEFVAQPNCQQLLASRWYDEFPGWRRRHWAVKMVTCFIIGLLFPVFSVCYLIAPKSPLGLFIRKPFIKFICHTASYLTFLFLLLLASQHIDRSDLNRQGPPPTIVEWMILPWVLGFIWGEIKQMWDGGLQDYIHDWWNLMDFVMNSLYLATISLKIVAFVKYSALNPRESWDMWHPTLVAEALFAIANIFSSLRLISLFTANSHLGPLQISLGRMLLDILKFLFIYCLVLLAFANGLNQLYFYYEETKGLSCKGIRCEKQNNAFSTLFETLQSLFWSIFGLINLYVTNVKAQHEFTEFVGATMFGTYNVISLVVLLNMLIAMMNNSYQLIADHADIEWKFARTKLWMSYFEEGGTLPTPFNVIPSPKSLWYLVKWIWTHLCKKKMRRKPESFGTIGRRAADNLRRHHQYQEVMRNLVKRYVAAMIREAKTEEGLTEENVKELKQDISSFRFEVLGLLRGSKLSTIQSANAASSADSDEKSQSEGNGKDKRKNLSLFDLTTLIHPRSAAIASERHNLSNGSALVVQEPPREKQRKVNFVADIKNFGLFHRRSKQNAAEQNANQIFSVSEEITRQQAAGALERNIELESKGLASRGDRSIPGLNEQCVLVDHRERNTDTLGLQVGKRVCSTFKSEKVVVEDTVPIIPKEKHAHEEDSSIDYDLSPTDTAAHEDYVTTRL

[2] = target: T2, High affinity choline transporter 1 (Homo sapiens, UniProt Q9GZV3); experiment: human choline transporter blockers, potency – cell-based, 5-point CRC, membrane potential dye, dose response (AID 504840); assay type: functional
T2 sequence (Q9GZV3 whole entry): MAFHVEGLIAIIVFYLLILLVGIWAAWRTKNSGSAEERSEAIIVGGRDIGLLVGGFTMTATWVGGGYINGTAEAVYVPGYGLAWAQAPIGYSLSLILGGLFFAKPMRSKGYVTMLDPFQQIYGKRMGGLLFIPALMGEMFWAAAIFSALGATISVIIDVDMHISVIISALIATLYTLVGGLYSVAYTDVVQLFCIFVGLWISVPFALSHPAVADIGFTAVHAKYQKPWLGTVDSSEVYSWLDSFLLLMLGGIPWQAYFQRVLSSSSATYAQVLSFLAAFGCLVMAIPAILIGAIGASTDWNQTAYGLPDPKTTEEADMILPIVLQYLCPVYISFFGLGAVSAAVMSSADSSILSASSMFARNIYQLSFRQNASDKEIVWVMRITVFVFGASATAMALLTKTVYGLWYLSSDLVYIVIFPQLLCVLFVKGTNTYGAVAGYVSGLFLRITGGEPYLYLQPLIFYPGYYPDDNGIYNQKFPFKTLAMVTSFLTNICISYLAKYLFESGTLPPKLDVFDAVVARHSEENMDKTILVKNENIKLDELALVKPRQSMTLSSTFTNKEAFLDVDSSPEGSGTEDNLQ

INS1 = experiment: INS-1E survival protection against cytokine death – cell-based, luminescence, retest, dose response (AID 449756); assay type: functional; conditions: Rattus norvegicus;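 further: cell death triggered by IL-1 beta plus TNF-alpha plus IFN-gamma mixture; protective hits raise ATP signal compared with cytokine alone wells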
[3] = Luminescence Cell-Based Dose Retest to Confirm Inhibitors of Cancer Stem Cells. [Related pubchem assays (depositor defined):AID2717, AID2721]; assay type: functional; conditions: Homo sapiens
[4] = viability of HCT116 lacking mutant beta-catenin – cell-based, human colon tumor, dose response (AID 1045); assay type: functional;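 further: HCT116 colon tumor cells with beta catenin knocked out; cells exposed to compound for 60 hours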
BJ [5] = experiment: BJ-TERT fibroblast viability loss – cell-based, RAS-independent, luminescence, dose response (AID 1933); assay type: functional; conditions: Homo sapiens
BJ [6] = experiment: cells; assay type: functional, cell-based; conditions: Homo sapiens
[7] = viability of PTEN-deleted HCT116 cells – cell-based, HCT116 PTEN knockout, dose response (AID 1047); assay type: functional;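 further: HCT116 colon tumor cells with PTEN knocked out; cells exposed to compound for 60 hours before readout; potency for loss of cell viability measured by luminescence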
[8] = target: T3, Replicative DNA helicase DnaB (Mycobacterium tuberculosis, UniProt P9WMR3); experiment: DnaB intein splicing inhibitors, dose response, biochemical, cell-free fluorescence (AID 449749); assay type: functional
T3 sequence (P9WMR3 whole entry): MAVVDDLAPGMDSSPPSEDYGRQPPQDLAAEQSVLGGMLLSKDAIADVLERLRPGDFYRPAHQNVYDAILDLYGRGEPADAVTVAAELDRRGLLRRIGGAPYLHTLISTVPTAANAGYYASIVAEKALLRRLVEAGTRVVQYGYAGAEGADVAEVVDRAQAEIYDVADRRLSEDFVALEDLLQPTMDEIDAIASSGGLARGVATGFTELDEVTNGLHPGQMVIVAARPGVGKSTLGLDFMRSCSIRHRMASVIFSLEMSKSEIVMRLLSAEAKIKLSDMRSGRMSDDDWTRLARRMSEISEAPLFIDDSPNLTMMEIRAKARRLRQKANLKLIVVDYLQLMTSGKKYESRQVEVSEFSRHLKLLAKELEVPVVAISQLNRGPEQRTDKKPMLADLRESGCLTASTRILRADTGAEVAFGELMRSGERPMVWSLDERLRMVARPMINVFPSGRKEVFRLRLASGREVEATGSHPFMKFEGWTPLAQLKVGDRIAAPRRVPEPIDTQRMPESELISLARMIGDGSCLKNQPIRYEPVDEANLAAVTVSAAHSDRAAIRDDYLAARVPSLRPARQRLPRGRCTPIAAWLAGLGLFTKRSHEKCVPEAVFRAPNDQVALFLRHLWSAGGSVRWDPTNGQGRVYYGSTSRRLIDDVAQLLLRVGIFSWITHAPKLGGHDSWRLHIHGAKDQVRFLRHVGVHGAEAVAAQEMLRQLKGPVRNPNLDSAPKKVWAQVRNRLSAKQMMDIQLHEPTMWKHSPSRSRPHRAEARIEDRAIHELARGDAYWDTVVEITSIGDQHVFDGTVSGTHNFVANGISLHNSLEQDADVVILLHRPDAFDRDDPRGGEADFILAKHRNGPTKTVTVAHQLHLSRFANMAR

O=[N+]([O-])c1ccc(O)c(C2=NNC(c3ccccc3F)C2)c1 (centres undefined)
active: EC50 [1] 15 µM | IC50 [2] 15.1 µM

Cc1oc2c(c1C(=O)N1CCC(C)CC1)C(=O)c1ccccc1C2=O
active: AC50 (INS1) 2.01 µM | AC50 [3] 6.94 µM | EC50 [4] 1.86 µM | EC50 (BJ [5]) 17.6 µM | EC50 (BJ [6]) 13.3 µM | EC50 [7] 1.92 µM | AC50 [8] 73.9 µM
